Experimental data: ChEMBL document CHEMBL1201862, “PubChem BioAssay data set” (2004)
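96-well plates; 48 h exposure; 5 concentrations. Endpoints by linear interpolation between flanking doses. Not reached: highest tested concentration assigned. GI50 marks 50% less growth.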 The source made the active and inactive calls. Rule as the data show it: active = GI50 up to about 1.1 µM and inactive = higher.

What was measured:
Assay in all cases: NCI tumour cell line growth inhibition, 48 h
NCI-H460 = tested on: NCI-H460
SNB-75 = tested on: SNB-75
RXF 393 = tested on: RXF 393
NCI-H226 = tested on: NCI-H226
SK-MEL-28 = tested on: SK-MEL-28
DU-145 = tested on: DU-145
OVCAR-8 = tested on: OVCAR-8
NCI-H23 = tested on: NCI-H23
OVCAR-5 = tested on: OVCAR-5
M14 = tested on: M14
MCF7 = tested on: MCF7
HL-60 = tested on: HL-60
HCC 2998 = tested on: HCC 2998
NCI/ADR-RES = tested on: NCI/ADR-RES
HOP-92 = tested on: HOP-92
UACC-257 = tested on: UACC-257
RPMI-8226 = tested on: RPMI-8226
IGROV-1 = tested on: IGROV-1
K562 = tested on: K562
SN12C = tested on: SN12C
Malme-3M = tested on: Malme-3M
CAKI-1 = tested on: CAKI-1
MDA-MB-435 = tested on: MDA-MB-435
U-251 = tested on: U-251
SF-268 = tested on: SF-268
HOP-62 = tested on: HOP-62
ACHN = tested on: ACHN
SR = tested on: SR
SW-620 = tested on: SW-620
MDA-MB-231 = tested on: MDA-MB-231
SF-539 = tested on: SF-539
PC-3 = tested on: PC-3
OVCAR-4 = tested on: OVCAR-4
SF-295 = tested on: SF-295
CCRF-CEM = tested on: CCRF-CEM
786-0 = tested on: 786-0
T47D = tested on: T47D
HT-29 = tested on: HT-29
SK-MEL-2 = tested on: SK-MEL-2
UACC-62 = tested on: UACC-62
NCI-H522 = tested on: NCI-H522
UO-31 = tested on: UO-31
OVCAR-3 = tested on: OVCAR-3
COLO 205 = tested on: COLO 205
MDA-N = tested on: MDA-N
SK-OV-3 = tested on: SK-OV-3
LOX IMVI = tested on: LOX IMVI
HCT-15 = tested on: HCT-15
EKVX = tested on: EKVX
SNB-19 = tested on: SNB-19
MOLT-4 = tested on: MOLT-4
A549 = tested on: A549
TK-10 = tested on: TK-10
HCT-116 = tested on: HCT-116
KM12 = tested on: KM12
A498 = tested on: A498
BT-549 = tested on: BT-549
SK-MEL-5 = tested on: SK-MEL-5

Measured: GI50

CC(NC(=O)OC(C)(C)C)C(=O)NC(Cc1ccccc1)C(=O)NCC(=O)ON=C1CCCC1 (stereo not drawn)
> 100 µM: HCT-15
inactive: NCI-H460 > 100 µM | SNB-75 93.1 µM | RXF 393 > 100 µM | NCI-H226 > 100 µM | SK-MEL-28 > 100 µM | DU-145 > 100 µM | OVCAR-8 > 100 µM | NCI-H23 > 100 µM | OVCAR-5 > 100 µM | M14 53.3 µM | MCF7 63.1 µM | HL-60 > 100 µM | HCC 2998 89.7 µM | NCI/ADR-RES > 100 µM | HOP-92 > 100 µM | UACC-257 > 100 µM | RPMI-8226 97.5 µM | IGROV-1 > 100 µM | K562 43.6 µM | SN12C > 100 µM | Malme-3M > 100 µM | CAKI-1 > 100 µM | MDA-MB-435 > 100 µM | U-251 68.1 µM | SF-268 > 100 µM | HOP-62 > 100 µM | ACHN > 100 µM | SR 31 µM | SW-620 > 100 µM | MDA-MB-231 43.5 µM | SF-539 > 100 µM | PC-3 > 100 µM | OVCAR-4 > 100 µM | SF-295 > 100 µM | CCRF-CEM 90.2 µM | 786-0 > 100 µM | T47D > 100 µM | HT-29 > 100 µM | SK-MEL-2 > 100 µM | UACC-62 > 100 µM | NCI-H522 32.7 µM | UO-31 65.8 µM | OVCAR-3 > 100 µM | COLO 205 > 100 µM | MDA-N 35.6 µM | SK-OV-3 > 100 µM | LOX IMVI > 100 µM | EKVX > 100 µM | SNB-19 > 100 µM | MOLT-4 41.9 µM | A549 > 100 µM | TK-10 > 100 µM | HCT-116 72.8 µM | KM12 57.4 µM | A498 > 100 µM | BT-549 > 100 µM | SK-MEL-5 > 100 µM
